Laboratory results taken from US6525001B1, “Substituted pyrimidine and pyridine herbicides” (Mid-American Commercialization Corporation, priority 1997, dated 2003).

Assays:
Assay type in all cases: in vivo
Set-up in all cases: key: 0 is no effect; 10 is complete control
[1] = tested on: bamyardgrass (Echinochloa crus-galli); experiment: Test B flood test
In short: (§1)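 Plants were grown to the 2-leaf stage before treatment with test chemical, then held in a greenhouse for twelve to sixteen days. Injury was visually rated against untreated controls on a 0–10 scale, where 0 is no effect and 10 is complete control.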

[2] = tested on: smallflower flatsedge (Cyperus difformis); experiment: Test B flood test
In short: as §1

[3] = tested on: duck salad (Heteranthera limosa); experiment: Test B flood test
In short: as §1

rice (Oryza sativa) = experiment: Test B flood test
In short: as §1

[4] = tested on: wheat (Triticum aestivum); experiment: Test B pre-/postemergence
In short: (§2)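 Seeds were planted and sprayed preemergence, while plants at 2 to 18 cm (1- to 4-leaf stage) were sprayed postemergence at the same time, with test chemical in a non-phytotoxic solvent mixture containing surfactant. After twelve to sixteen days in a greenhouse, injury was rated visually against untreated controls on a 0–10 scale.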

[5] = tested on: cocklebur (Xanthium strumarium); experiment: Test B pre-/postemergence
In short: as §2

[6] = tested on: giant foxtail (Setaria faberii); experiment: Test B pre-/postemergence
In short: as §2

[7] = tested on: broadleaf signalgrass (Brachiaria decumbens); experiment: Test B pre-/postemergence
In short: as §2

[8] = tested on: crabgrass (Digitaria sanguinalis); experiment: Test B pre-/postemergence
In short: as §2

corn (Zea mays) = experiment: Test B pre-/postemergence
In short: as §2

[9] = tested on: velvetleaf (Abutilon theophrasti); experiment: Test B pre-/postemergence
In short: as §2

[10] = tested on: sugar beet (Beta vulgaris); experiment: Test B pre-/postemergence
In short: as §2

[11] = tested on: blackgrass (Alopecurus myosuroides); experiment: Test B pre-/postemergence
In short: as §2

[12] = tested on: momingglory (Ipomoea hederacea); experiment: Test B pre-/postemergence
In short: as §2

[13] = tested on: purple nutsedge (Cyperus rotundus); experiment: Test B pre-/postemergence
In short: as §2

rape (Brassica napus) = experiment: Test B pre-/postemergence
In short: as §2

wild oat (Avena fatua) = experiment: Test B pre-/postemergence
In short: as §2

[14] = tested on: bedstraw (Galium aparine); experiment: Test B pre-/postemergence
In short: as §2

soybean (Glycine max) = experiment: Test B pre-/postemergence
In short: as §2

[15] = tested on: pigweed (Amaranthus retroflexus); experiment: Test B pre-/postemergence
In short: as §2

[16] = Rate 62 g/ha, Postemergence (flood test)
[17] = Rate 125 g/ha, Postemergence section (flood test species)
[18] = Rate 250 g/ha, Postemergence (flood test species)
[19] = Preemergence, Rate 62 g/ha, scale of 0 to 10

N#Cc1ccc(-c2nccc(C(=O)c3cccc(C(F)(F)F)c3)n2)cc1 [Compound 78]
Barnyardgrass plant response rating [1, 16]: 0
Barnyardgrass plant response rating [1, 17]: 0
Plant response rating, Barnyardgrass [1, 18]: 0
S. Flatsedge plant response rating [2, 16]: 0
S. Flatsedge plant response rating [2, 17]: 0
Plant response rating, S. Flatsedge [2, 18]: 0
Ducksalad plant response rating [3, 16]: 0
Ducksalad plant response rating [3, 17]: 0
Plant response rating, Ducksalad [3, 18]: 0
Rice plant response rating (rice (Oryza sativa); [16]): 0
Rice plant response rating (rice (Oryza sativa); [17]): 0
Plant response rating, Rice (rice (Oryza sativa); [18]): 0
Plant response rating, Wheat [4, 19]: 0
Wheat plant response rating ([4]; Rate 62 g/ha, Postemergence): 0
Wheat plant response rating ([4]; Rate 125 g/ha, Postemergence): 0
Plant response rating, Wheat ([4]; Rate 125 g/ha, Preemergence): 0
Plant response rating, Wheat ([4]; Rate 250 g/ha, Postemergence): 0
Plant response rating, Wheat ([4]; Rate 250 g/ha, Preemergence): 0
Plant response rating, Cocklebur [5, 19]: 0
Cocklebur plant response rating ([5]; Rate 62 g/ha, Postemergence): 0
Cocklebur plant response rating ([5]; Rate 125 g/ha, Postemergence): 0
Plant response rating, Cocklebur ([5]; Rate 125 g/ha, Preemergence): 0
Plant response rating, Cocklebur ([5]; Rate 250 g/ha, Postemergence): 0
Plant response rating, Cocklebur ([5]; Rate 250 g/ha, Preemergence): 0
Plant response rating, Giant foxtail [6, 19]: 0
Giant foxtail plant response rating ([6]; Rate 62 g/ha, Postemergence): 0
Giant foxtail plant response rating ([6]; Rate 125 g/ha, Postemergence): 0
Plant response rating, Giant foxtail ([6]; Rate 125 g/ha, Preemergence): 0
Plant response rating, Giant foxtail ([6]; Rate 250 g/ha, Postemergence): 0
Plant response rating, Giant foxtail ([6]; Rate 250 g/ha, Preemergence): 0
B. signalgrass plant response rating ([7]; Rate 62 g/ha, Postemergence): 0
B. signalgrass plant response rating ([7]; Rate 62 g/ha, Preemergence): 0
B. signalgrass plant response rating ([7]; Rate 125 g/ha, Postemergence): 0
Plant response rating, B. signalgrass ([7]; Rate 125 g/ha, Preemergence): 0
Plant response rating, B. signalgrass ([7]; Rate 250 g/ha, Postemergence): 1
Plant response rating, B. signalgrass ([7]; Rate 250 g/ha, Preemergence): 0
Plant response rating, Crabgrass [8, 19]: 0
Crabgrass plant response rating ([8]; Rate 62 g/ha, Postemergence): 0
Crabgrass plant response rating ([8]; Rate 125 g/ha, Postemergence): 0
Plant response rating, Crabgrass ([8]; Rate 125 g/ha, Preemergence): 0
Plant response rating, Crabgrass ([8]; Rate 250 g/ha, Postemergence): 0
Plant response rating, Crabgrass ([8]; Rate 250 g/ha, Preemergence): 0
Plant response rating, Corn (corn (Zea mays); [19]): 0
Corn plant response rating (corn (Zea mays); Rate 62 g/ha, Postemergence): 0
Corn plant response rating (corn (Zea mays); Rate 125 g/ha, Postemergence): 0
Plant response rating, Corn (corn (Zea mays); Rate 125 g/ha, Preemergence): 0
Plant response rating, Corn (corn (Zea mays); Rate 250 g/ha, Postemergence): 2
Plant response rating, Corn (corn (Zea mays); Rate 250 g/ha, Preemergence): 0
Plant response rating, Velvetleaf [9, 19]: 0
Velvetleaf plant response rating ([9]; Rate 62 g/ha, Postemergence): 0
Velvetleaf plant response rating ([9]; Rate 125 g/ha, Postemergence): 0
Plant response rating, Velvetleaf ([9]; Rate 125 g/ha, Preemergence): 0
Plant response rating, Velvetleaf ([9]; Rate 250 g/ha, Postemergence): 0
Plant response rating, Velvetleaf ([9]; Rate 250 g/ha, Preemergence): 0
Plant response rating, Sugarbeets [10, 19]: 0
Sugarbeets plant response rating ([10]; Rate 62 g/ha, Postemergence): 0
Sugarbeets plant response rating ([10]; Rate 125 g/ha, Postemergence): 0
Plant response rating, Sugarbeets ([10]; Rate 125 g/ha, Preemergence): 0
Plant response rating, Sugarbeets ([10]; Rate 250 g/ha, Postemergence): 0
Plant response rating, Sugarbeets ([10]; Rate 250 g/ha, Preemergence): 0
Plant response rating, Blackgrass [11, 19]: 0
Blackgrass plant response rating ([11]; Rate 62 g/ha, Postemergence): 0
Blackgrass plant response rating ([11]; Rate 125 g/ha, Postemergence): 0
Plant response rating, Blackgrass ([11]; Rate 125 g/ha, Preemergence): 0
Plant response rating, Blackgrass ([11]; Rate 250 g/ha, Postemergence): 1
Plant response rating, Blackgrass ([11]; Rate 250 g/ha, Preemergence): 0
Plant response rating, Morningglory [12, 19]: 0
Morningglory plant response rating ([12]; Rate 62 g/ha, Postemergence): 0
Morningglory plant response rating ([12]; Rate 125 g/ha, Postemergence): 0
Plant response rating, Morningglory ([12]; Rate 125 g/ha, Preemergence): 0
Plant response rating, Morningglory ([12]; Rate 250 g/ha, Postemergence): 2
Plant response rating, Morningglory ([12]; Rate 250 g/ha, Preemergence): 0
Plant response rating, Nutsedge [13, 19]: 0
Nutsedge plant response rating ([13]; Rate 62 g/ha, Postemergence): 0
Nutsedge plant response rating ([13]; Rate 125 g/ha, Postemergence): 0
Plant response rating, Nutsedge ([13]; Rate 125 g/ha, Preemergence): 0
Plant response rating, Nutsedge ([13]; Rate 250 g/ha, Postemergence): 0
Plant response rating, Nutsedge ([13]; Rate 250 g/ha, Preemergence): 0
Plant response rating, Rape (rape (Brassica napus); [19]): 0
Rape plant response rating (rape (Brassica napus); Rate 62 g/ha, Postemergence): 0
Rape plant response rating (rape (Brassica napus); Rate 125 g/ha, Postemergence): 0
Plant response rating, Rape (rape (Brassica napus); Rate 125 g/ha, Preemergence): 0
Plant response rating, Rape (rape (Brassica napus); Rate 250 g/ha, Postemergence): 0
Plant response rating, Rape (rape (Brassica napus); Rate 250 g/ha, Preemergence): 0
Plant response rating, Wild oats (wild oat (Avena fatua); [19]): 0
Wild oats plant response rating (wild oat (Avena fatua); Rate 62 g/ha, Postemergence): 0
Wild oats plant response rating (wild oat (Avena fatua); Rate 125 g/ha, Postemergence): 0
Plant response rating, Wild oats (wild oat (Avena fatua); Rate 125 g/ha, Preemergence): 0
Plant response rating, Wild oats (wild oat (Avena fatua); Rate 250 g/ha, Postemergence): 0
Plant response rating, Wild oats (wild oat (Avena fatua); Rate 250 g/ha, Preemergence): 0
Plant response rating, Bedstraw [14, 19]: 0
Bedstraw plant response rating ([14]; Rate 62 g/ha, Postemergence): 0
Bedstraw plant response rating ([14]; Rate 125 g/ha, Postemergence): 0
Plant response rating, Bedstraw ([14]; Rate 125 g/ha, Preemergence): 0
Plant response rating, Bedstraw ([14]; Rate 250 g/ha, Postemergence): 0
Plant response rating, Bedstraw ([14]; Rate 250 g/ha, Preemergence): 0
Plant response rating, Soybean (soybean (Glycine max); [19]): 0
Soybean plant response rating (soybean (Glycine max); Rate 62 g/ha, Postemergence): 0
Soybean plant response rating (soybean (Glycine max); Rate 125 g/ha, Postemergence): 0
Plant response rating, Soybean (soybean (Glycine max); Rate 125 g/ha, Preemergence): 0
Plant response rating, Soybean (soybean (Glycine max); Rate 250 g/ha, Postemergence): 0
Plant response rating, Soybean (soybean (Glycine max); Rate 250 g/ha, Preemergence): 0
Plant response rating, Redroot pigweed [15, 19]: 0
Redroot pigweed plant response rating ([15]; Rate 62 g/ha, Postemergence): 0
Redroot pigweed plant response rating ([15]; Rate 125 g/ha, Postemergence): 0
Plant response rating, Redroot pigweed ([15]; Rate 125 g/ha, Preemergence): 0
Plant response rating, Redroot pigweed ([15]; Rate 250 g/ha, Postemergence): 4
Plant response rating, Redroot pigweed ([15]; Rate 250 g/ha, Preemergence): 0
